Assay results from patent US9737587B2, “Treatment of autism spectrum disorders with ciliary neurotrophic factor peptide mimetic” (The Research Foundation for Mental Hygiene, Inc., priority 2014, dated 2017).
No end group written: not given here.

Key:
mice or rats = settings: in vivo
human = human clinical trials; cited from earlier work

For VGDGGLFEKKL [Peptide P6, VGDGGLFEKKL], the “adverse effects associated with the full-length protein (CNTF)” value (mice or rats) was “does not cause adverse effects associated with the full-length protein” and the half-life (in vivo) was > 6 h.

B1: recombinant CNTF: recombinant full-length ciliary neurotrophic factor (protein, UniProt P26441 1-200, looked up)
chain: MAFTEHSPLTPHRRDLCSRSIWLARKIRSDLTALTESYVKHQGLNKNINLDSADGMPVASTDQWSELTEAERLQENLQAYRTFHVLLARLLEDQQVHFTPTEGDFHQAIHTLLLQVAAFAYQIEELMILLEYKIPRNEADGMPINVGDGGLFEKKLWGLKVLQELSQWTVRSIHDLRFISSHQTGIPARGSHYIANNKKM
modifications: full-length
notes: recombinant full-length ciliary neurotrophic factor
In the case of B1, the adverse effects (human) is given as “anorexia, skeletal muscle loss, hyperalgesia, severe cramps, and muscle pain”.
